In ChEMBL document CHEMBL4831527, “Structure-Based Design and Discovery of Pyridyl-Bearing Fused Bicyclic HIV-1 Inhibitors: Synthesis, Biological Characterization, and Molecular Modeling Studies” (J Med Chem, 2021):
Active and inactive are the calls of the source. The calls are words filed in the database; no cut-off is given here.

What was measured:
[1] = tested on: Human immunodeficiency virus 1; experiment: Antiviral activity against HIV1 harboring reverse transcriptase L100I mutant infected in human MT4 cells assessed as protection against virus-induced cytopathic effect incubated for 5 days by MTT assay; type: functional, organism-based; conditions: Human immunodeficiency virus 1, MT4, 120 h
[2] = Cytotoxicity against mock-infected human MT4 cells assessed as reduction in cell viability measured after 5 days by MTT assay; type: cell-based; conditions: time 5 day
[3] = tested on: Human immunodeficiency virus 1; experiment: Antiviral activity against HIV1 3B infected in human MT4 cells assessed as protection against virus-induced cytopathic effect incubated for 5 days by MTT assay; type: functional, organism-based; conditions: Human immunodeficiency virus 1, 3B, MT4, 120 h
[4] = tested on: Human immunodeficiency virus 1; experiment: Antiviral activity against HIV1 RES056 infected in human MT4 cells assessed as protection against virus-induced cytopathic effect incubated for 5 days by MTT assay; type: functional, organism-based; conditions: Human immunodeficiency virus 1, RES056, MT4, 120 h
[5] = molecular target: Human immunodeficiency virus type 1 reverse transcriptase (Human immunodeficiency virus 1, UniProt Q72547); experiment: Inhibition of wild type HIV1 p66/p51 reverse transcriptase using poly(rA) as template, oligo(dT)16 as primer and RNA/DNA as substrate measured after 40 mins by PICOGreen-dye based spectrofluorimetry analysis
[6] = tested on: Human immunodeficiency virus 2; experiment: Antiviral activity against HIV2 ROD infected in human MT4 cells assessed as protection against virus-induced cytopathogenicity after 5 days by MTT assay; type: functional, organism-based; conditions: time 5.0 day
[7] = Half life in human liver microsomes at 1 uM in presence of NADPH by LC-MS/MS analysis; type: ADME, Microsome
[8] = in vitro; conditions: human, liver microsomes
[9] = tested on: Human immunodeficiency virus 1; experiment: Antiviral activity against HIV1 harboring reverse transcriptase Y181C mutant infected in human MT4 cells assessed as protection against virus-induced cytopathic effect incubated for 5 days by MTT assay; type: functional, organism-based; conditions: Human immunodeficiency virus 1, MT4, 120 h
[10] = tested on: Human immunodeficiency virus 1; experiment: Potency index, ratio of ETR EC50 to test compound EC50 for antiviral activity against HIV1 harboring reverse transcriptase E138K mutant infected in human MT4 cells; type: functional
[11] = tested on: Human immunodeficiency virus 1; experiment: Antiviral activity against HIV1 harboring reverse transcriptase Y188L mutant infected in human MT4 cells assessed as protection against virus-induced cytopathic effect incubated for 5 days by MTT assay; type: functional, organism-based; conditions: Human immunodeficiency virus 1, MT4, 120 h
[12] = tested on: Human immunodeficiency virus 1; experiment: Antiviral activity against HIV1 harboring reverse transcriptase F227L/V106A double mutant infected in human MT4 cells assessed as protection against virus-induced cytopathic effect incubated for 5 days by MTT assay; type: functional, organism-based; conditions: Human immunodeficiency virus 1, MT4, 120 h
[13] = tested on: Human immunodeficiency virus 1; experiment: Antiviral activity against HIV1 harboring reverse transcriptase K103N mutant infected in human MT4 cells assessed as protection against virus-induced cytopathic effect incubated for 5 days by MTT assay; type: functional, organism-based; conditions: Human immunodeficiency virus 1, MT4, 120 h
[14] = Selectivity index, ratio of CC50 for mock-infected human MT4 cells to EC50 for HIV1 RES056 infected in human MT4 cells; type: toxicity, cell-based; conditions: MT4 cells (mock-infected and HIV1 RES056 infected), read-out: Ratio CC50/EC50
[15] = tested on: Human immunodeficiency virus 1; experiment: Antiviral activity against HIV1 harboring reverse transcriptase E138K mutant infected in human MT4 cells assessed as protection against virus-induced cytopathic effect incubated for 5 days by MTT assay; type: functional, organism-based; conditions: Human immunodeficiency virus 1, MT4, 120 h
[16] = Selectivity index, ratio of CC50 for mock-infected human MT4 cells to EC50 for HIV1 3B infected in human MT4 cells; type: toxicity, cell-based; conditions: MT4 cells (mock-infected and HIV1 3B infected), read-out: Ratio CC50/EC50

Cc1cc(C#N)cc(C)c1Oc1nc(Nc2ccc(C#N)cc2)nc2c1ccn2CC(=O)N1CCOCC1
EC50 [1]: 154 nM | CC50 at 120 h [2]: 2300 nM | EC50 [3]: 7.7 nM | EC50 [4]: 782 nM | IC50 [5]: 155 nM | Activity [6]: inactive | half-life at 1 µM [7]: 3.1 min | CLint scaled at 1 h, 1 µM [8]: 397 mL/min/kg | EC50 [9]: 148 nM | Ratio EC50 [10]: 2.2 | EC50 [11]: 56.7 nM | EC50 [12]: 146 nM | EC50 [13]: 5.9 nM | selectivity ratio [14]: 3 | EC50 [15]: 6.8 nM | selectivity ratio [16]: 297
